The record followed here is patent US4535075A, “Dithiolane derivative, process for producing the same and use thereof” (Nihon Nohyaku Co., Ltd., priority 1982, dated 1985).

Molecules are shown by their SMILES. ≈ marks a conversion by molar mass, not a printed value. Like-named read-outs stand apart in the source and are kept apart here.

The nature of series [1]: water solubility. The series is classed as physicochemical.
The test system of series [2] is fatty liver induced by carbon tetrachloride. The series can be described thus: Protective effect on fatty liver (carbon tetrachloride). The series is classed as in vivo, rats (SD strain). As to conditions: percentage of mean value in carbon tetrachloride alone group, 100 mg/kg/day p.o. for 4 days, control 32.0. The method, then:
Carbon tetrachloride also induces fatty liver. Carbon tetrachloride is generally considered to damage microsome and thereby to inhibit protein synthesis and induce fatty liver.
Carbon tetrachloride was subcutaneously administered to 5-6 week-old male rats (SD strain) for 4 days at the dose of 0.5 ml/kg/day.
Simultaneously, the compound of the present invention was orally administered to the rats for 4 days at the dose of 30 mg/kg/day or 100 mg/kg/day.
On the 5th day, the rats were sacrificed by exsanguination.
The controlling (protective) effect was evaluated by determining the content of triglyceride in the liver.
Triglyceride was determined colorimetrically by chromotropic acid method.
Each value represented the percentage of mean value in carbon tetrachloride alone group.

The subject of series [3] is liver damage induced by carbon tetrachloride. Description: Protective (Controlling) effect on liver damage induced by carbon tetrachloride. In kind it is in vivo, mice (dd strain). The note with it: 250 mg/kg p.o., CCl4 0.05 ml/kg after 6 h, 24 h; for p-GPT: CCl4 alone >2,100; for Liver Damage Index: average of 5 mice, 0 Normal, 2 Slightly recognized, 4 Clearly observable damage, 6 Heavy damage, CCl4 alone 5.0. The gist of the method:
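Six-week-old male dd mice received compound at 250 mg/kg orally in olive oil or diethyleneglycol, then carbon tetrachloride 0.05 ml/kg orally 6 h later.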

The subject of series [4] is liver damage induced by α-naphthyl isothiocyanate (ANIT). The series can be described thus: Protective effect on liver damage induced by ANIT (Method 1). In kind it is in vivo, mice. As to conditions: 2 x 250 mg/kg p.o., ANIT 35 mg/kg p.o., 24 h. The text has this:
Protective effect on liver damage induced by α-naphthyl isothiocyanate (referred to as "ANIT", hereinafter).
It is well known that experimental cholestasis is accomplished by administration with ANIT in mice and rats, and studied as a cholestasis model in human being.
ANIT and CCl4 induce necrosis in the liver. ANIT causes it as small focci in perilobular parenchyna and CCl4 causes centrilobular parenchymal coagulation necrosis.
From these information, the elevation of plasma GPT activity in these models are thought to have defferent characteristics.
Test compounds, dissolved or suspended in olive oil or diethyleneglycol, were orally administered 2 times at intervals of 3 hrs to mice at the dose of 250 mg/kg. At 3 hrs after the second administration with test compounds, ANIT was administered orally at 35 mg/kg.
Mice were sacrificed at 24 hrs after ANIT administration and blood samples were collected. The blood samples were centrifuged and plasma was obtained.
Plasma GPT activity and alkaline phosphatase activity were determined by Reitman & Frankel's method and Bessey-Lowry's method, respectively. The activity was expressed with Karmen Unit and Bessey-Lowry Unit, respectively.

The nature of series [5]: acute oral toxicity (LD50). As to conditions: in vivo, male rat. The method, then: The compounds represented by the general formula (I) are low in toxicity to mammals.
Their acute oral toxicities to male rat expressed as LD50 values are shown below.
For example, the LD50 values of the compound No. 1, No. 2, No. 3, No. 8 and No. 12 are 1,000-3,000 mg/kg, 3,000-5,000 mg/kg, more than 5,000 mg/kg, more than 5,000 mg/kg and 1,000-3,000 mg/kg, respectively.

Where [6] appears, read: Table 3-1, control 3.3, ANIT alone 5.3.
[7] abbreviates: Table 3-1, control 7.4, ANIT alone 324.0.

In the case of `COC(=O)C(C(=O)OC)=C1SC(O)C(O)S1` (centres unmarked) [Compound 1], the solubility (in general, the dissolved amount per volume that the medium holds) in series [1] (2% gum arabic aqueous solution, in 2% gum-arabia aqueous solution, read-out: solubility) was determined as 20000 µg/mL (≈ 75.1 mM). Besides, the Triglyceride in series [2] is 57.5%. Also, the figures for the p-GPT in series [3] and in series [4] (setting [7]) were 23 Karmen units and 128.0 K.U, respectively. Further, in series [3], the “Liver Damage Index” value is on record as 0.0. The same compound registered an Alkaline phosphatase activity in series [4] (setting [6]) of 3.9 B-L.V. The LD50 (usually the dose expected to kill half of the subjects tested) in series [5] lay within 1000 to 3000 mg/kg.

In turn, `CC(C)COC(=O)C(C(=O)OCC(C)C)=C1SC(O)C(O)S1` (centres unmarked) [Compound 5] returned a Triglyceride in series [2] of 40.0%. Also, the p-GPT in series [3] amounted to 135 Karmen units; in series [4] (Table 3-2, ANIT alone >653.7), 134.8 K.U. For the same compound, the “Liver Damage Index” value in series [3] was 0.0. In series [4] (Table 3-2, ANIT alone 5.3), this compound displayed an Alkaline phosphatase activity of 3.5 B-L.V.

The compound `CCOC(=O)C(C(=O)OCC)=C1SC(O)C(O)S1` (centres unmarked) [Compound 2, diethyl 4,5-dihydroxy-1,3-dithiolan-2-ylidenemalonate] registered a Triglyceride in series [2] of 46.6%. Besides, the p-GPT in series [3] was determined as 15 Karmen units; in series [4] (setting [7]), 28.0 K.U. Moreover, in series [3], the “Liver Damage Index” value was determined as 0.0. Besides, in series [4] (setting [6]), the Alkaline phosphatase activity is reported as 4.4 B-L.V. For the same compound, the LD50 in series [5] is 3000 to 5000 mg/kg.

In series [1] (water), `C=CCOC(=O)C(C(=O)OCC=C)=C1SC(O)C(O)S1` (centres unmarked) [Compound 12, diallyl 4,5-dihydroxy-1,3-dithiolan-2-ylidenemalonate] returned a solubility of 2200 µg/mL (≈ 6.91 mM). Further, the Triglyceride in series [2] is recorded as 35.4%. In series [3], the p-GPT is listed as 63 Karmen units and the “Liver Damage Index” value was determined as 1.0. Also, the Alkaline phosphatase activity in series [4] (setting [6]) is on record as 4.9 B-L.V. This compound also displayed a p-GPT in series [4] (setting [7]) of 19.9 K.U. In series [5], the LD50 is 1000 to 3000 mg/kg.

Take `CC(C)OC(=O)C(C(=O)OC(C)C)=C1SC(O)C(O)S1` (centres unmarked) [Compound 23, diisopropyl 4,5-dihydroxy-1,3-dithiolan-2-ylidenemalonate]: the solubility in series [1] (in water at 20° C., read-out: water solubility) worked out at 2000 µg/mL (≈ 6.2 mM). Moreover, in series [3], the p-GPT is reported as 22.5 Karmen units and the “Liver Damage Index” value was determined as 0.0. Also, the Alkaline phosphatase activity in series [4] (setting [6]) was found to be 4.0 B-L.V. For the same compound, the p-GPT in series [4] (setting [7]) was found to be 76.0 K.U.

In the case of `CCCOC(=O)C(C(=O)OCCC)=C1SC(O)C(O)S1` (centres unmarked) [Compound 3], the Triglyceride in series [2] was determined as 39.0%. Further, the p-GPT in series [3] came to 12 Karmen units; in series [4] (setting [7]), 53.0 K.U. Also, the “Liver Damage Index” value in series [3] amounted to 0.2. In series [4] (setting [6]), this compound had an Alkaline phosphatase activity of 4.7 B-L.V. The compound further showed a median lethal dose (LD50) in series [5] greater than 5000 mg/kg.

Consider `CCCCCOC(=O)C(C(=O)OCCCCC)=C1SC(O)C(O)S1` (centres unmarked) [Compound 8], for which, in series [3], the p-GPT is 21 Karmen units and the “Liver Damage Index” value came to 0.0. The same compound displayed an Alkaline phosphatase activity in series [4] (setting [6]) of 4.3 B-L.V. This compound also registered a p-GPT in series [4] (setting [7]) of 56.0 K.U. Further, in series [5], the LD50 is greater than 5000 mg/kg.
